Test results: patent US20140066498A1, “TRITERPENOID DERIVATIVES, BENZENOID DERIVATIVES, AND PHARMACEUTICAL COMPOSITIONS CONTAINING THE SAME” (National Cheng Kung University, priority 2010, published 2014)
≈ marks a conversion by molar mass, not a printed value. Like-named read-outs stand apart in the source and are kept apart here.

How the values were obtained:
[1] = system: KB-VIN (multidrug-resistant strain); assay: Cytotoxicity assay against KB-VIN cells in vitro; assay type: cell-based, human
[2] = target: T1, nitric oxide synthase (NOS) (Mus musculus, UniProt P29477); assay: NOS activity: LPS-induced NO production in murine microglial cells (BV2)
T1 sequence (P29477 1-1144): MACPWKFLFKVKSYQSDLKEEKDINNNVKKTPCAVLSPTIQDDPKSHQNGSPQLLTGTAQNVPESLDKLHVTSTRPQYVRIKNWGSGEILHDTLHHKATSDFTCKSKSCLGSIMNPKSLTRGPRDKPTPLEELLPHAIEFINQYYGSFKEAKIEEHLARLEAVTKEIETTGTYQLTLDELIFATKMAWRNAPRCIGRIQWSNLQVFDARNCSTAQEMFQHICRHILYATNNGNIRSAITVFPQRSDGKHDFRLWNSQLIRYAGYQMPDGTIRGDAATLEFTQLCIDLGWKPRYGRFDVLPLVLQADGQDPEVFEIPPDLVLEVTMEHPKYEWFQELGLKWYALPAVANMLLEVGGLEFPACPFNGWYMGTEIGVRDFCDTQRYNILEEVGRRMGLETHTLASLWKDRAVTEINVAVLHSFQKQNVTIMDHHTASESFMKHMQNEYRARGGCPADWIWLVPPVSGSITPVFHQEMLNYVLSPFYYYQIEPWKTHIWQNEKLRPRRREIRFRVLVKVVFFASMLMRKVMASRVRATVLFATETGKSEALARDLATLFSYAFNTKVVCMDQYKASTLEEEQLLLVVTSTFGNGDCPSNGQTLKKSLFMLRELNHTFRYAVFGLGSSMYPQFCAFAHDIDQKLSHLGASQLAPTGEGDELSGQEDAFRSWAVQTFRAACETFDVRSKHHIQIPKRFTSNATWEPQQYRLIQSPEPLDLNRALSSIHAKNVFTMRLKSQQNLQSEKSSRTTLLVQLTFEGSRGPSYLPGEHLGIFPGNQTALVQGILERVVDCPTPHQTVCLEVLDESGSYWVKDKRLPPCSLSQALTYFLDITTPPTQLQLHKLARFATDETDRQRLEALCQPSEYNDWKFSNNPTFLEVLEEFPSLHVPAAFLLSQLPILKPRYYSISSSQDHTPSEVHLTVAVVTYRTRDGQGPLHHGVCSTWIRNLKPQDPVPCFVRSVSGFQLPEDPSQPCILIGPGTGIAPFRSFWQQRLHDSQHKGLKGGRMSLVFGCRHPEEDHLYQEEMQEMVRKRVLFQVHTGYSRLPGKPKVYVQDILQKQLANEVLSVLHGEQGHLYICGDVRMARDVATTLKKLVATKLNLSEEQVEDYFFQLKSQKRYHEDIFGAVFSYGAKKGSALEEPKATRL
Procedure: Microglial cell culture and measurements of mitric oxide (NO). The murine microglial cell line (BV2) was cultured, and the production of NO was measured by the methods as previously described (Wang, Y. H.; Wang, W. Y.; Chang, C. C.; Liou, K. T.; Sung, Y. J.; Liao, J. F.; Chen, C. F.; Chang, S.; Hou, Y. C.; Chou, Y. C.; Shen, Y. C. J. Biomed. Sci. 2006, 13, 127-141).

[3] = system: Daoy (human medulloblastoma); assay: MTT cytotoxicity assay, Daoy; assay type: cell-based; conditions: Daoy cell line
Procedure: (§1) Compounds II-7-II-9, II-13, II-14, II-20, II-21, II-25-II-33, and II-36 were assayed for cytotoxic activity against Doay (human medulloblastoma), Hep2 (human laryngeal carcinoma), MCF-7 (human breast adenocarcinoma), and Hela (human cervical epitheloid carcinoma) cell lines, using a MTT assay method.

[4] = system: MCF-7 (human breast adenocarcinoma); assay: MTT cytotoxicity assay, MCF-7; assay type: cell-based; conditions: MCF-7 cell line
Procedure: as §1

[5] = system: Hela (human cervical epitheloid carcinoma); assay: MTT cytotoxicity assay, Hela; assay type: cell-based; conditions: Hela cell line
Procedure: as §1

KB (human cancer cell) = assay: Cytotoxicity assay against KB cells in vitro; assay type: cell-based; conditions: NA@20 given for inactive
[6] = system: Hep2 (human laryngeal carcinoma); assay: MTT cytotoxicity assay, Hep2; assay type: cell-based; conditions: Hep2 cell line
Procedure: as §1

NADPH oxidase (NOX) [7] = target: NADPH oxidase (NOX) (Homo sapiens, UniProt P04839); assay type: cell-based; conditions: ROS production triggered with fMLP (2 μM), 1-50 μM test drug, peripheral human neutrophils; mean ± S.E.M.; read-out: IC50 (μM) in NOX fMLP-induced NOX activation in PMN
NADPH oxidase (NOX) [8] = target: NADPH oxidase (NOX) (Mus musculus, UniProt Q61093); assay type: biochemical, murine; conditions: ROS production triggered with NADPH (200 μM), 1-50 μM test drug, BV2 cell lysate; mean ± S.E.M., 3-6 experiments; read-out: IC50 (μM) in NOX activity from BV2 cell lysate
[9] = read-out: IC50 (μM) in NOS, LPS-induced NO production in BV2 cells, 1-50 μM test drug, mean ± S.E.M.

## C=C(CC[C@@H](C)C1CCC2C3=C(C(=O)C[C@@]21C)[C@@]1(C)CCC(O)[C@@H](C)C1CC3O)C(C)C(=O)O (stereo in doubt) [Compound I-2, 3α,7β-dihydroxy-11-oxo-4α-methylergosta-8,24(28)-dien-26-oic acid]
[1]
  EC50 (μM) KB-VIN: NA@20
[2]
  IC50: 15.7 ± 0.9 µM

## C=C(CC[C@@H](C)C1CCC2C3=C(C(=O)C[C@@]21C)[C@@]1(C)CCC(O)[C@@H](C)C1CC3=O)C(C)C(=O)OC (stereo in doubt) [Compound I-5, methyl-3α-hydroxy-7,11-dioxo-4α-methylergosta-8,24(28)-dien-26-oate]
[3]
  ED50 (μg/mL) Daoy: 5.2 µg/mL (≈ 10.7 µM)
[4]
  ED50 (μg/mL) MCF-7: 6.6 µg/mL (≈ 13.6 µM)
[5]
  ED50 (μg/mL) Hela: 9.0 µg/mL (≈ 18.6 µM)
[1]; Homo sapiens, KBVIN
  EC50: 2.7 µM
KB (human cancer cell); Homo sapiens
  EC50: 0.45 µM
[6]
  ED50 (μg/mL) Hep2: 7.0 µg/mL (≈ 14.4 µM)

## C=C(CC[C@@H](C)C1CCC2C3=C(C(=O)C[C@@]21C)[C@@]1(C)CCC(=O)[C@@H](C)C1CC3O)C(C)C(=O)OC (stereo in doubt) [Compound I-6, methyl-7β-hydroxy-3,11-dioxo-4α-methylergosta-8,24(28)-dien-26-oate]
[3]
  ED50 (μg/mL) Daoy: 4.4 µg/mL (≈ 9.08 µM)
[4]
  ED50 (μg/mL) MCF-7: 7.9 µg/mL (≈ 16.3 µM)
[5]
  ED50 (μg/mL) Hela: 8.9 µg/mL (≈ 18.4 µM)
[1]; Homo sapiens, KBVIN
  EC50: 2.9 µM
KB (human cancer cell); Homo sapiens
  EC50: 2 µM
[2]
  IC50: 2.5 µM
[6]
  ED50 (μg/mL) Hep2: 3.0 µg/mL (≈ 6.19 µM)
other
  melting point: 100 to 101 °C

## C=C(CC[C@@H](C)C1CCC2C3=C(C(=O)C[C@@]21C)[C@@]1(C)CCC(=O)[C@@H](C)C1CC3O)C(C)C(=O)O (stereo in doubt) [Compound I-7, 7α-hydroxy-3,11-dioxo-4α-methylergosta-8,24(28)-dien-26-oic acid]
[1]; Homo sapiens, KBVIN
  EC50: 17.5 µM
KB (human cancer cell); Homo sapiens
  EC50: 15 µM

## C=C(CC[C@@H](C)C1CCC2C3=C(C(=O)[C@H](O)[C@@]21C)[C@@]1(C)CC[C@@H](O)[C@@H](C)C1C[C@H]3O)C(C)C(=O)O (stereo partly drawn) [Compound I-1, 3α,7β,11α-trihydroxy-11-oxo-4α-methylergosta-8,24(28)-dien-26-oic acid]
[1]
  EC50 (μM) KB-VIN: NA@20
KB (human cancer cell)
  EC50 (μM) KB: NA@20
other
  melting point: 117 to 119 °C

## C=C(CC[C@@H](C)C1CCC2C3=C(C(=O)C[C@@]21C)[C@@]1(C)CC[C@@H](O)[C@](C)(O)C1CC3=O)C(C)C(=O)O (stereo partly drawn) [Compound I-3, 3α,4β-dihydroxy-7,11-dioxo-4α-methylergosta-8,24(28)-dien-26-oic acid]
[1]; Homo sapiens, KBVIN
  EC50: 2.3 µM
KB (human cancer cell); Homo sapiens
  EC50: 0.3 µM
other
  melting point: 186 to 188 °C

## C=C(CC[C@@H](C)[C@H]1CC[C@@]2(O)C3=C(C(=O)C[C@]12C)[C@@]1(C)CCC(=O)[C@@H](C)C1C[C@@H]3O)C(C)C(=O)O (stereo partly drawn) [Compound I-4, 7β,14α-dihydroxy-3,11-dioxo-4α-methylergosta-8,24(28)-dien-26-oic acid]
[1]; Homo sapiens, KBVIN
  EC50: 1.4 µM
KB (human cancer cell); Homo sapiens
  EC50: 1 µM
other
  melting point: 175 to 177 °C

## C=C(CC[C@@H](C)[C@H]1CC[C@H]2C3=C(C(=O)C[C@]12C)[C@@]1(C)CCC(=O)[C@@H](C)C1CC3)C(C)C (stereo partly drawn) [Compound I-8, 4α-methylergosta-8,24(28)-dien-3,11-dione]
[1]
  EC50 (μM) KB-VIN: NA@20
KB (human cancer cell)
  EC50 (μM) KB: NA@20

## C[C@H](C=C[C@H](C)[C@H](C)CO)[C@H]1CC[C@H]2C3=CCC4CC(=O)CC[C@]4(C)[C@H]3CC[C@]12C (stereo partly drawn) [Compound I-9, (25S)-26-hydroxy-ergosta-7,22-dien-3-one]
[1]
  EC50 (μM) KB-VIN: NA@20
KB (human cancer cell)
  EC50 (μM) KB: NA@20
[2]
  IC50: 12.7 ± 2.2 µM
other
  melting point: 192 to 193 °C

## C=C(CC[C@@H](C)[C@H]1CC[C@@H]2C3=C(C(=O)C[C@@]21C)[C@@]1(C)CCC(=O)[C@@H](C)C1CC3)C(C)C(=O)OC (stereo partly drawn) [Compound I-10, methyl-3,11-dioxo-4α-methyl-14β-ergosta-8,24(28)-dien-26-oate]
[3]
  ED50 (μg/mL) Daoy: —^a (ED50 > 20 μg/mL)
[4]
  ED50 (μg/mL) MCF-7: 8.7 µg/mL (≈ 18.6 µM)
[5]
  ED50 (μg/mL) Hela: 11.3 µg/mL (≈ 24.1 µM)
[1]
  EC50 (μM) KB-VIN: NA@20
KB (human cancer cell)
  EC50 (μM) KB: NA@20
[2]
  IC50: 1.6 µM
[6]
  ED50 (μg/mL) Hep2: — (ED50 > 20 μg/mL)
other
  melting point: 100 to 102 °C

## C=C(CC[C@@H](C)[C@H]1CC[C@H]2C3=C(C(=O)C[C@]12C)[C@@]1(C)CCC(=O)[C@@H](C)[C@@H]1CC3=O)C(C)C(=O)O (stereo partly shown) [Compound I-11, zhankuic acid A]
[3]
  ED50 (μg/mL) Daoy: — (ED50 > 20 μg/mL)
[4]
  ED50 (μg/mL) MCF-7: — (ED50 > 20 μg/mL)
[5]
  ED50 (μg/mL) Hela: — (ED50 > 20 μg/mL)
[1]
  EC50: 6.2 µM
KB (human cancer cell)
  EC50: 3 µM
[2]; [9]
  IC50: 3.6 µM
[6]
  ED50 (μg/mL) Hep2: 16.6 µg/mL (≈ 35.4 µM)
NADPH oxidase (NOX) [7]
  IC50: 22.1 ± 6.7 µM

## C=C(CC[C@@H](C)[C@H]1CC[C@H]2C3=C(C(=O)C[C@]12C)[C@@]1(C)CC[C@@H](O)[C@@H](C)[C@@H]1CC3=O)C(C)C(=O)O (stereo partly shown) [Compound I-12, zhankuic acid B]
[1]
  EC50: 8.5 µM
KB (human cancer cell)
  EC50: 7.3 µM
[2]; [9]
  IC50: 9.6 ± 0.7 µM

## C=C(CC[C@@H](C)[C@H]1CC[C@H]2C3=C(C(=O)C[C@]12C)[C@@]1(C)CCC(=O)[C@@H](C)[C@@H]1CC3=O)C(C)C(=O)OC (stereo partly shown) [Compound I-14, zhankuic acid A methyl ester]
[1]
  EC50: > 20 µM
KB (human cancer cell)
  EC50: > 20 µM
[2]; [9]
  IC50: 0.6 µM
NADPH oxidase (NOX) [7]
  IC50: 8.4 ± 2.1 µM

## C=C(CC[C@@H](C)[C@H]1CC[C@H]2C3=C(C(=O)C[C@]12C)[C@@]1(C)CCC(=O)[C@@H](C)[C@@H]1C[C@@H]3O)[C@H](C)C(=O)O [Compound I-16, antcin C]
[1]
  EC50 (μM) KB-VIN: NA@20
KB (human cancer cell)
  EC50 (μM) KB: NA@20
[2]; [9]
  IC50: 4.2 µM
NADPH oxidase (NOX) [7]
  IC50: 22.6 ± 3.3 µM

## C=C(CC[C@@H](C)[C@H]1CC[C@H]2C3=C(C(=O)C[C@]12C)[C@@]1(C)CC[C@@H](O)[C@](C)(O)[C@@H]1C[C@@H]3O)C(C)C(=O)O (stereo partly shown) [Compound I-17, antcin K]
[1]
  EC50 (μM) KB-VIN: NA@20
KB (human cancer cell)
  EC50 (μM) KB: NA@20
NADPH oxidase (NOX) [7]
  IC50: 47.2 ± 8.4 µM

## CC(C)[C@@H](C)/C=C/[C@@H](C)[C@H]1CC[C@H]2C3=CC[C@H]4C[C@@H](O)CC[C@]4(C)C3=CC[C@]12C [Compound I-20, ergosterol D]
[2]; [9]
  IC50: 30.6 ± 0.8 µM
NADPH oxidase (NOX) [7]
  IC50: 27.9 ± 5.6 µM

## C=C(CC[C@@H](C)[C@H]1CC[C@H]2C3=C(C(=O)C[C@]12C)[C@@]1(C)CCC(=O)[C@@H](C)C1CC3)C(C)C(=O)OC (stereo partly drawn) [Compound I-21, methyl 4α-methylergost-8,24(28)-dien-3,11-dion-26-oate]
[2]
  IC50: 1.5 µM

## CC(C)[C@@H](C)/C=C/[C@@H](C)[C@H]1CC[C@@H]2[C@]1(C)CC[C@H]1[C@]23C=C[C@]2(C[C@@H](O)CC[C@]12C)OO3 [Compound I-22, ergosterol peroxide]
[2]; [9]
  IC50: 6.3 ± 1.8 µM

## c1ccc2c(c1)[I+]c1ccccc1-2 [DPI, Diphenyleneiodonium, reference compound]
NADPH oxidase (NOX) [8]
  IC50: 0.4 µM

## C=C(C)C#Cc1c(C)c(OC)c(OC)c2c1OCO2 [II-2]
[2]; [9]
  IC50: 12.1 µM

## COc1c(C)c(-c2c(C)c(OC)c3c(c2OC)OCO3)c(OC)c2c1OCO2 [II-7, 2,2′,5,5′-tetra-methoxy-3,4,3′,4′-bi-methylenedioxy-6,6′-dimethylbiphenyl]
[2]; [9]
  IC50: 16.2 ± 1.4 µM

## COc1cc(C)c(OC)c2c1OCO2 [II-8, 4,7-dimethoxy-5-methyl-1,3-benzodioxole]
[2]; [9]
  IC50: 29.1 ± 4.4 µM

## eburicol [Compound I-19]
[1]
  EC50: > 20 µM
KB (human cancer cell)
  EC50: > 20 µM
